This note sets out measurements from US7189741B2, “Indolylpiperidine derivatives as antihistaminic and antiallergic agents” (Almirall Prodesfarma S.A., priority 2000, dated 2007).

Like-named read-outs stand apart in the source and are kept apart here.

Assay [1] relates to histamine induced skin vascular permeability. Kind of assay: Histamine-induced skin vascular permeability in rats. Particulars: Rattus norvegicus; male Wistar rats, oral, dose of 1 mg/Kg, 4 hours after administration, vs vehicle treated group. In kind it is in vivo. Here is the method:
Male Wistar rats (180–210 g) were treated orally with the test compound or vehicle. 1, 4, 8 and 24 hours later, the rats were lightly anaesthetized with ether. The cutaneous reaction was induced by two intradermal injections of 50 μl of histamine (100 μg/ml) onto the back, followed by a intravenous injection of 3 ml/kg of Evan's Blue (5 mg/ml), both dissolved in saline. Sixty min later, the rats were killed by cervical dislocation and the back skin dissected free. The diameter (in millimeters) of the papule was measured in two directions and the area was calculated.

A further assay addresses T1, histamine-H1 receptors (Cavia porcellus, UniProt P31389).
T1 construct: performed in guinea pig cerebellum membranes as described previously; from tissue; host or cells: guinea pig cerebellum membranes
As to the kind of experiment: Histamine-H1 receptor binding assay ([3H]-mepyramine displacement). Further details: species or system guinea pig. As for the experimental part: Briefly, the membrane suspensions (160 μg/ml) were incubated at 30° C. with 0.7 nM [^3H]-mepyramine and different concentrations of the test compounds in a final volume of 250 μl. Binding reactions were terminated by filtration after 30 min of incubation and the bound radioactivity was determined. The specific binding was measured in the presence of 10 μM of promethazine. The affinity of each test compound to the receptor was determined by using at least six different concentrations run in duplicate. IC50 values were obtained by non-linear regression by use of SAS on a DEC AXP computer.

[2] abbreviates: guinea pig cerebellum membranes, 0.7 nM [3H]-mepyramine, 30 min at 30° C., read-out: Binding to receptor H1 (IC50).

T1 sequence (P31389 whole entry): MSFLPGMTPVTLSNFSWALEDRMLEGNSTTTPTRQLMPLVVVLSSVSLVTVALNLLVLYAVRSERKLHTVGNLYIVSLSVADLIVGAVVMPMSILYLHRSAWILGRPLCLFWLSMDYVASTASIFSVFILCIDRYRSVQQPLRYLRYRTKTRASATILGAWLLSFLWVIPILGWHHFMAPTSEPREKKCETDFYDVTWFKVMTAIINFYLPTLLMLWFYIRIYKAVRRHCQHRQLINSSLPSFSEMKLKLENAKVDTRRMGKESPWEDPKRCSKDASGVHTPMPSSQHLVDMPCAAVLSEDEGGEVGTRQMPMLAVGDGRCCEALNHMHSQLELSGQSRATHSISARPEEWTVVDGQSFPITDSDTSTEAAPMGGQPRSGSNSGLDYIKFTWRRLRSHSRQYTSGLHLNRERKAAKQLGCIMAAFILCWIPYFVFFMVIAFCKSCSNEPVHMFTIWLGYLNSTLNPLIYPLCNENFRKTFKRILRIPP

In turn, `COc1ccc(CN2CCC(c3cn(Cc4ccc(Cl)s4)c4cc(F)ccc34)CC2)cc1C(=O)O` [Example 79, 5-{4-[1-(5-chloro-thiophen-2-ylmethyl)-6-fluoro-1H-indol-3-yl]-piperidin-1-ylmethyl}-2-methoxy-benzoic acid] had an inhibition in vivo at 1 mg/kg in assay [1] of over 50%. In addition, at histamine-H1 receptors (setting [2]), the IC50 is 150 nM.

`COc1ccc(CN2CCC(c3cn(Cc4cccs4)c4ccccc34)CC2)cc1C(=O)O` [Example 73, 2-methoxy-5-[4-(1-thiophen-2-ylmethyl-1H-indol-3-yl)-piperidin-1-ylmethyl]-benzoic acid] yielded an inhibition in vivo at 1 mg/kg in assay [1] of over 50%. Besides, the IC50 at histamine-H1 receptors (setting [2]) turned out to be 125 nM.

In the case of `O=C(O)c1cccc(CN2CCC(c3cn(Cc4cccs4)c4ccccc34)CC2)c1` [Example 25, 3-[4-(1-thiophen-2-ylmethyl-1H-indol-3-yl)-piperidin-1-ylmethyl]-benzoic acid], the IC50 at histamine-H1 receptors (setting [2]) stood at 90 nM.

On to `O=C(O)c1ccccc1OCCN1CCC(c2cn(CCC3OCCO3)c3ccccc23)CC1` [Example 23, 2-(2-{4-[1-(2-[1,3]dioxolan-2-yl-ethyl)-1H-indol-3-yl]-piperidin-1-yl}-ethoxy)-benzoic acid], for which, in assay [1], the inhibition in vivo at 1 mg/kg was over 50%. Besides, the 50% inhibitory concentration (IC50) at histamine-H1 receptors (setting [2]) came out at 354 nM.

Consider `O=C(O)c1ccccc1OCCN1CCC(c2cn(CCc3ccsc3)c3ccccc23)CC1` [Example 13, 2-(2-{4-[1-(2-thiophen-3-yl-ethyl)-1H-indol-3-yl]-piperidin-1-yl}-ethoxy)-benzoic acid], for which the IC50 on histamine-H1 receptors (setting [2]) amounted to 59 nM.

On to `O=C(O)c1ccccc1OCCN1CCC(c2cn(Cc3ccco3)c3ccccc23)CC1` [Example 9, 2-{2-[4-(1-furan-2-ylmethyl-1H-indol-3-yl)-piperidin-1-yl]-ethoxy}-benzoic acid], for which the IC50 on histamine-H1 receptors (setting [2]) came out at 98 nM.

As to `COc1ccc2c(c1)c(C1CCN(CCOc3ccccc3C(=O)O)CC1)cn2CCc1ccsc1` [Example 88, 2-(2-{4-[5-methoxy-1-(2-thiophen-3-yl-ethyl)-1H-indol-3-yl]-piperidin-1-yl}-ethoxy)-benzoic acid], at histamine-H1 receptors (setting [2]), the IC50 turned out to be 51 nM.

Take `O=C(O)c1ccccc1OCCN1CCC(c2cn(CC3OCCO3)c3ccccc23)CC1` [Example 1, 2-{2-[4-(1-[1,3]dioxolan-2-ylmethyl-1H-indol-3-yl)-piperidin-1-yl]-ethoxy}-benzoic acid]: the IC50 at histamine-H1 receptors (setting [2]) turned out to be 200 nM.

With `O=C(O)c1ccccc1OCCN1CCC(c2cn(CCOc3ccc4c(c3)OCO4)c3ccccc23)CC1` [Example 77, 2-[2-(4-{1-[2-(benzo[1,3]dioxol-5-yloxy)-ethyl]-1H-indol-3-yl}-piperidin-1-yl)-ethoxy]-benzoic acid], the IC50 on histamine-H1 receptors (setting [2]) was found to be 116 nM.

In assay [1], `COc1ccc(CN2CCC(c3cn(CCc4ccsc4)c4ccccc34)CC2)cc1C(=O)O` [Example 75, 2-methoxy-5-{4-[1-(2-thiophen-3-yl-ethyl)-1H-indol-3-yl]-piperidin-1-ylmethyl}-benzoic acid] showed an inhibition in vivo at 1 mg/kg of over 50%. In addition, the IC50 at histamine-H1 receptors (setting [2]) came to 52 nM.

On to `O=C(O)c1ccccc1OCCN1CCC(c2cn(Cc3ccoc3)c3cc(F)ccc23)CC1` [Example 112, 2-{2-[4-(6-fluoro-1-furan-3-ylmethyl-1H-indol-3-yl)-piperidin-1-yl]-ethoxy}-benzoic acid], for which the IC50 on histamine-H1 receptors (setting [2]) worked out at 31 nM.

Take `O=C(O)c1ccccc1OCCN1CCC(c2cn(CCc3ccsc3)c3cc(F)ccc23)CC1` [Example 110, 2-(2-{4-[6-fluoro-1-(2-thiophen-3-yl-ethyl)-1H-indol-3-yl]-piperidin-1-yl}-ethoxy)-benzoic acid]: the IC50 at histamine-H1 receptors (setting [2]) amounted to 23 nM.

`COc1ccc(CN2CCC(c3cn(Cc4ccco4)c4ccccc34)CC2)cc1C(=O)O` [Example 85, 5-[4-(1-furan-2-ylmethyl-1H-indol-3-yl)-piperidin-1-ylmethyl]-2-methoxy-benzoic acid] gave an inhibition in vivo at 1 mg/kg in assay [1] of over 50%. In addition, at histamine-H1 receptors (setting [2]), the IC50 came out at 101 nM.

For `O=C(O)c1ccccc1OCCN1CCC(c2cn(Cc3ccncc3)c3ccccc23)CC1` [Example 3, 2-{2-[4-(1-pyridin-4-ylmethyl-1H-indol-3-yl)-piperidin-1-yl]-ethoxy}-benzoic acid], the IC50 at histamine-H1 receptors (setting [2]) stood at 267 nM.

Take `O=C(O)c1ccccc1OCCN1CCC(c2cn(CCCOc3ccc4c(c3)OCO4)c3ccccc23)CC1` [Example 16, 2-[2-(4-{1-[3-(benzo[1,3]dioxol-5-yloxy)propyl]-1H-indol-3-yl}piperidin-1-yl)ethoxy]benzoic acid]: on histamine-H1 receptors (setting [2]), the IC50 came out at 78 nM.

In assay [1], `COc1ccc(CN2CCC(c3cn(CCc4ccsc4)c4cc(F)ccc34)CC2)cc1C(=O)O` [Example 78, 5-{4-[6-fluoro-1-(2-thiophen-3-yl-ethyl)-1H-indol-3-yl]-piperidin-1-ylmethyl}-2-methoxy-benzoic acid] yielded an inhibition in vivo at 1 mg/kg of over 50%. Further, at histamine-H1 receptors, the IC50 was found to be 65 nM.

On to `O=C(O)c1cc(CN2CCC(c3cn(CCCOc4ccc5c(c4)OCO5)c4ccccc34)CC2)ccc1F` [Example 50, 5-(4-{1-[3-(benzo[1,3]dioxol-5-yloxy)-propyl]-1H-indol-3-yl}-piperidin-1-ylmethyl)-2-fluoro-benzoic acid], for which, on histamine-H1 receptors (setting [2]), the IC50 was determined as 155 nM.

As to `O=C(O)c1ccccc1OCCN1CCC(c2cn(Cc3ccc(Cl)s3)c3ccccc23)CC1` [Example 19, 2-(2-{4-[1-(5-chloro-thiophen-2-ylmethyl)-1H-indol-3-yl]-piperidin-1-yl}-ethoxy)-benzoic acid], the IC50 at histamine-H1 receptors (setting [2]) is 120 nM.

Consider `O=C(O)c1ccccc1OCCN1CCC(c2cn(Cc3ccsc3)c3ccccc23)CC1` [Example 11, 2-{2-[4-(1-thiophen-3-ylmethyl-1H-indol-3-yl)-piperidin-1-yl]-ethoxy}-benzoic acid], for which, at histamine-H1 receptors (setting [2]), the IC50 came to 400 nM.

Consider `O=C(O)c1cccc(CN2CCC(c3cn(Cc4ccco4)c4cc(F)ccc34)CC2)c1` [Example 96, 3-[4-(6-fluoro-1-furan-2-ylmethyl-1H-indol-3-yl)-piperidin-1-ylmethyl]-benzoic acid], for which the IC50 on histamine-H1 receptors (setting [2]) turned out to be 107 nM.

The compound `COc1ccc(CN2CCC(c3cn(Cc4ccoc4)c4cc(F)ccc34)CC2)cc1C(=O)O` [Example 80, 5-[4-(6-fluoro-1-furan-3-ylmethyl-1H-indol-3-yl)-piperidin-1-ylmethyl]-2-methoxy-benzoic acid] returned an inhibition in vivo at 1 mg/kg in assay [1] of over 50%. Moreover, the IC50 on histamine-H1 receptors (setting [2]) stood at 96 nM.

`COc1ccc(CN2CCC(c3cn(Cc4ccoc4)c4ccccc34)CC2)cc1C(=O)O` [Example 86, 5-[4-(1-furan-3-ylmethyl-1H-indol-3-yl)-piperidin-1-ylmethyl]-2-methoxy-benzoic acid] registered an inhibition in vivo at 1 mg/kg in assay [1] of over 50%. For the same compound, at histamine-H1 receptors (setting [2]), the IC50 is 155 nM.

The compound `O=C(O)c1ccccc1OCCN1CCC(c2cn(Cc3ccco3)c3cc(F)ccc23)CC1` [Example 22, 2-{2-[4-(6-fluoro-1-furan-2-ylmethyl-1H-indol-3-yl)-piperidin-1-yl]-ethoxy}-benzoic acid] registered an inhibition in vivo at 1 mg/kg in assay [1] of over 50%.

Regarding `O=C(O)c1ccccc1OCCN1CCC(c2cn(CCC3OCCO3)c3cc(F)ccc23)CC1` [Example 24, 2-(2-{4-[1-(2-[1,3]dioxolan-2-yl-ethyl)-6-fluoro-1H-indol-3-yl]-piperidin-1-yl}-ethoxy)-benzoic acid], the inhibition in vivo at 1 mg/kg in assay [1] was over 50%. For the same compound, the IC50 on histamine-H1 receptors (setting [2]) was found to be 51 nM.

Consider `Cn1ccnc1SCCCn1cc(C2CCN(CCOc3ccccc3C(=O)O)CC2)c2ccccc21` [Example 6, 2-[2-(4-{1-[3-(1-methyl-1H-imidazol-2-ylsulfanyl)-propyl]-1H-indol-3-yl}-piperidin-1-yl)-ethoxy]-benzoic acid], for which, at histamine-H1 receptors (setting [2]), the IC50 was found to be 463 nM.

In the case of `O=C(O)c1cccc(CN2CCC(c3cn(CCC4OCCO4)c4ccccc34)CC2)c1` [Example 28, 3-{4-[1-(2-[1,3]dioxolan-2-yl-ethyl)-1H-indol-3-yl]-piperidin-1-ylmethyl}-benzoic acid], the IC50 on histamine-H1 receptors (setting [2]) worked out at 205 nM.

`O=C(O)c1ccccc1OCCN1CCC(c2cn(CCCC3OCCO3)c3ccccc23)CC1` [Example 21, 2-(2-{4-[1-(3-[1,3]dioxolan-2-yl-propyl)-1H-indol-3-yl]-piperidin-1-yl}-ethoxy)-benzoic acid]: on histamine-H1 receptors (setting [2]), the concentration for half-maximal inhibition (IC50) is 295 nM.

Take `O=C(O)c1ccccc1OCCN1CCC(c2cn(CCc3cccs3)c3ccccc23)CC1` [Example 12, 2-(2-{4-[1-(2-thiophen-2-yl-ethyl)-1H-indol-3-yl]-piperidin-1-yl}-ethoxy)-benzoic acid]: the half-inhibitory concentration (IC50) on histamine-H1 receptors (setting [2]) stood at 43 nM.

Consider `COc1ccc(CN2CCC(c3cn(CCc4cccs4)c4cc(F)ccc34)CC2)cc1C(=O)O` [Example 69, 5-{4-[6-fluoro-1-(2-thiophen-2-yl-ethyl)-1H-indol-3-yl]-piperidin-1-ylmethyl}-2-methoxy-benzoic acid], for which the IC50 at histamine-H1 receptors (setting [2]) was found to be 135 nM.

In assay [1], `COc1ccc(CN2CCC(c3cn(Cc4cccs4)c4cc(F)ccc34)CC2)cc1C(=O)O` [Example 82, 5-[4-(6-fluoro-1-thiophen-2-ylmethyl-1H-indol-3-yl)-piperidin-1-ylmethyl]-2-methoxy-benzoic acid] yielded an inhibition in vivo at 1 mg/kg of over 50%. For the same compound, the IC50 at histamine-H1 receptors (setting [2]) came to 91 nM.
